Structures can show the parent of a compound that is named as a salt. Where two headings read alike, the source gives them in different places.

Test [1] relates to Giardia lamblia trophozoites, WB strain (ATCC #30957). Nature of the test: 3H-thymidine incorporation drug sensitivity assay, Giardia lamblia WB strain (ATCC 30957). Format: cell-based. The conditions noted are these: for IC50: Giardia duodenalis; for efficacy against Giardia lamblia (in words): qualitative statements on the results. In general terms: Incorporation of labelled thymidine or its analogues reports DNA synthesis.
Method: Giardia lamblia trophozoites were obtained from logarithmically growing stock cultures. Into the wells of a 96 well U-bottom tissue culture plate (Costar) was placed 100 μl of modified TYI-S-33 medium containing 2.5×10^4 trophozoites. The tissue culture plate was maintained in an anerobic environment by placing it inside a plastic box modified to allow nitrogen to be passed through the box via inlet and outlet tubing which could be clamped shut. Nitrogen was passed through the box for 2 minutes and the container was placed in a 37° C. incubator gassed with 5% CO2 in air.
Varying concentrations of ^3 H-thymidine (0.5, 1.0, 1.5 and 2.0 μCi/well) were added to wells containing 2.5×10^4 Giardia lamblia trophozoites at 2 hour intervals so that it might remain in contact with the trophozoites for 2 to 24 hours. After 24 hours of incubation, the cells were harvested with a multimash cell harvester by washing vigorously with ice-cold Hank's Balanced Salt Solution. Samples were collected on Whatman glass microfiber paper. the paper was air dried, samples were placed in 7 ml scintillation vials and the incorporation of ^3 H-thymidine was determined by liquid scintillation counting. Mean values were calculated from 5 replicates for each time point and concentration.
One hundred μl of modified TYI-S-33 medium containing 2.5×10^4trophozoites was placed into each well of a 96-well U-bottom plate. The plates were incubated under anaerobic conditions for 24 hours. After 24 hours, the compounds to be tested were prepared from the 2 mM stock solutions and 100 μl each solution was added to yield concentrations of 1, 10, 100 and 1000 μMin the wells. Ten μl of a 150 μCi/ml solution of ^3 H-thymidine (SA=10 Ci/mmole) in modified TYI-S-33 was added 6 hours after the addition of drug to yield a final concentration of 1.5 μCi/well. After an additional 18 hours of incubation the cells were harvested. Five replicates were run for each drug concentration and the mean values determined. Non-specific binding of the ^3 H-thymidine to the microfiber paper was determined through the use of control wells to which no organisms were added. The activities of compounds tested were determined by comparing the incorporation of ^ 3 H-thymidine in the wells to which the compounds were added to that of wells of drug free controls. The drug concentration required to inhibit 50% incorporation of ^3 H-thymidine (IC50) was determined (Chou, 1974).

Test [2] has as its system Giardia lamblia Stock BRIS/82/HEPU/41. Particulars: Table IV; Stock BRIS/82/HEPU/41 (Boreham et al., 1984); read-out: IC50 determined by 3H-thymidine incorporation; cited from earlier work.
The subject of test [3] is Giardia lamblia Stock BRIS/83/HEPU/106. The conditions noted are these: Table IV; Stock BRIS/83/HEPU/106 (Boreham et al., 1984); read-out: IC50 determined by 3H-thymidine incorporation; cited from earlier work.
The subject of test [4] is Giardia lamblia Stock BRI/83/HEPU/136. Particulars: Table IV; Stock BRI/83/HEPU/136 (Boreham et al., 1984); read-out: IC50 determined by 3H-thymidine incorporation; cited from earlier work.
Test [5] deals with Giardia lamblia Stock BRIS/83/HEPU/120. The conditions noted are these: Table IV; Stock BRIS/83/HEPU/120 (Boreham et al., 1984); read-out: IC50 determined by 3H-thymidine incorporation; cited from earlier work.
The mark [6] stands for this setting: ATCC30957, Table I, 50% inhibition of 3H-thymidine incorporation, WB strain, 24 h with drug, read-out: IC50, Giardia lamblia vs. para-amidines.
Where [7] appears, read: ATCC30957, Table III, 50% inhibition of 3H-thymidine incorporation, WB strain, 24 h with drug, read-out: IC50, Giardia lamblia vs. para-imidazolines.
Where [8] appears, read: ATCC30957, read-out: IC50, Giardia lamblia vs. para-amidines.
[9] abbreviates: ATCC30957, Table II, 50% inhibition of 3H-thymidine incorporation, WB strain, 24 h with drug, read-out: IC50, Giardia lamblia vs. meta-amidines.
Where [10] appears, read: ATCC30957, Table IV, Stock WB (ATCC 30957), read-out: IC50 determined by 3H-thymidine incorporation.

Regarding `N=C(N)c1ccc(NCCCCCCNc2ccc(C(=N)N)cc2N)c(N)c1` [Example 26], the IC50 in test [1] (setting [6]) amounted to 21.9 µM.

For the compound `c1cc(C2=NCCN2)ccc1OCCCCOc1ccc(C2=NCCN2)cc1` [Example 32], the IC50 in test [1] (setting [7]) turned out to be 26 µM. Same read-out and setting: with `c1cc(C2=NCCN2)ccc1OCCCCCOc1ccc(C2=NCCN2)cc1` [Example 34] the figure was 39.2 µM. As to `N=C(N)c1ccc(NCCCNc2ccc(C(=N)N)cc2)cc1` [Example 6], the IC50 in test [1] (setting [6]) was found to be 68.2 µM. Take `N=C(N)c1ccc(OCCCCOc2ccc(C(=N)N)cc2[N+](=O)[O-])c([N+](=O)[O-])c1` [Example 10]: in test [1] (setting [8]), the IC50 was found to be 53.2 µM. As for `N=C(N)c1cccc(OCCCCCCOc2cccc(C(=N)N)c2)c1` [Example 30], the IC50 in test [1] (setting [9]) was 84.2 µM. With `N=C(N)c1ccc(OCCCCCCOc2ccc(C(=N)N)cc2N)c(N)c1` [Example 24], the IC50 in test [1] (setting [6]) came out at 38.7 µM.

Regarding `N=C(N)c1ccc(OCCCCCOc2ccc(C(=N)N)cc2[N+](=O)[O-])c([N+](=O)[O-])c1` [Example 17], in test [1] (setting [8]), the IC50 came out at 26.1 µM.

On to `CN1CCN=C1c1ccc(OCCCCCOc2ccc(C3=NCCN3C)cc2)cc1` [Example 35], for which the IC50 in test [1] (setting [7]) came to 373 µM. With `N=C(N)c1cccc(OCCCOc2cccc(C(=N)N)c2)c1` [Example 27], the IC50 in test [1] (setting [9]) turned out to be 560 µM. Take `N=C(N)c1ccc(NCCNc2ccc(C(=N)N)cc2N)c(N)c1` [Example 2]: the IC50 in test [1] (setting [6]) amounted to 744 µM.

As to `N=C(N)c1cccc(OCCCCCOc2cccc(C(=N)N)c2)c1` [Example 29], the IC50 in test [1] (setting [9]) worked out at 55.8 µM. Turning to `N=C(N)c1ccc(OCCCCOc2ccc(C(=N)N)cc2N)c(N)c1` [Example 9], the IC50 in test [1] (setting [6]) stood at 96.8 µM. As to `COc1cc(C(=N)N)ccc1OCCCOc1ccc(C(=N)N)cc1OC` [Example 5], in test [1] (setting [6]), the IC50 worked out at 3.2 µM. Regarding `N=C(N)c1ccc(NCCCCCNc2ccc(C(=N)N)cc2N)c(N)c1` [Example 21], the IC50 in test [1] (setting [6]) was 48.6 µM. On to `N=C(N)c1ccc(OCCCCCOc2ccc(C(=N)N)cc2)cc1` [Example 15, reference compound], for which the IC50 in test [1] (setting [8]) worked out at 76.5 µM. In test [1], the “efficacy against Giardia lamblia (in words)” value was “moderately effective”. In the case of `N=C(N)c1ccc(NCCCCCNc2ccc(C(=N)N)cc2[N+](=O)[O-])c([N+](=O)[O-])c1` [Example 22], the IC50 in test [1] (setting [8]) stood at 29.9 µM. Consider `N=C(N)c1ccc(OCCCCOc2ccc(C(=N)N)cc2Cl)c(Cl)c1` [Example 12], for which the IC50 in test [1] (setting [6]) amounted to 27.7 µM. For the compound `N=C(N)c1ccc(OCCCOc2ccc(C(=N)N)cc2N)c(N)c1` [Example 4], the IC50 in test [1] (setting [6]) came out at 15.4 µM.

Take `N=C(N)c1ccc(OCCCCCCOc2ccc(C(=N)N)cc2)cc1` [Example 23]: the IC50 in test [1] (setting [6]) was 34.3 µM. Same read-out and setting: for `N=C(N)c1ccc(OCCCCCOc2ccc(C(=N)N)cc2N)c(N)c1` [Example 16] the value was 66.3 µM. Regarding `CN1CCN=C1c1ccc(OCCCCOc2ccc(C3=NCCN3C)cc2)cc1` [Example 33], in test [1] (setting [7]), the IC50 stood at 346 µM.

Consider `Cc1ncc([N+](=O)[O-])n1CCO` [Metronidazole], for which the IC50 in test [2] is 2.14 µM; in test [3], 0.91 µM; in test [4], 2.21 µM; in test [1] (setting [10]), 3.65 µM; in test [5] it was 1.08 µM. On to `N=C(N)c1ccc(NCCCCCNc2ccc(C(=N)N)cc2)cc1` [Example 20], for which the IC50 in test [1] (setting [6]) was determined as 40.6 µM. Same read-out and setting: with `N=C(N)c1ccc(OCCCCOc2ccc(C(=N)N)cc2)cc1` [Example 8] the figure was 61.6 µM. Turning to `N=C(N)c1cccc(OCCCCOc2cccc(C(=N)N)c2)c1` [Example 28], the IC50 in test [1] (setting [9]) is 106 µM. In the case of `N=C(N)c1ccc(NCCCCNc2ccc(C(=N)N)cc2N)c(N)c1` [Example 14], the IC50 in test [1] (setting [6]) amounted to 108 µM.

`COc1cc(C2=NCCN2)ccc1OCCCCCOc1ccc(C2=NCCN2)cc1OC` [Example 36]: the IC50 in test [1] (setting [7]) was 47.1 µM. As for `N=C(N)c1ccc(NCCCNc2ccc(C(=N)N)cc2[N+](=O)[O-])c([N+](=O)[O-])c1` [Example 7], in test [1] (setting [8]), the IC50 was 84.2 µM. Take `N=C(N)c1ccc(NCCCCCCNc2ccc(C(=N)N)cc2)cc1` [Example 25]: in test [1] (setting [6]), the IC50 worked out at 4.2 µM.

For the compound `N=C(N)c1ccc(OCCCCCOc2ccc(C(=N)N)cc2Cl)c(Cl)c1` [Example 19], in test [1] (setting [6]), the IC50 is 16.3 µM. With `N=C(N)c1ccc(OCCOc2ccc(C(=N)N)cc2N)c(N)c1` [Example 1], the IC50 in test [1] (setting [6]) was 1180 µM. Take `O=C1OCCN1N=Cc1ccc([N+](=O)[O-])o1` [Furazolidone]: the IC50 in test [2] is 0.6 µM; in test [3] it was 0.74 µM; in test [4], 0.43 µM; in test [1] (setting [10]), 1.9 µM; in test [5], 2.5 µM.

For the compound `COc1cc(C(=N)N)ccc1OCCCCOc1ccc(C(=N)N)cc1OC` [Example 11], the IC50 in test [1] (setting [6]) is 68.8 µM. On the same count and under the same terms, for `N=C(N)c1ccc(NCCCCNc2ccc(C(=N)N)cc2)cc1` [Example 13] the value was 50.7 µM. As to `COc1cc(C2=NCCN2)ccc1OCCCOc1ccc(C2=NCCN2)cc1OC` [Example 31], the IC50 in test [1] (setting [7]) was found to be 25.4 µM. The “efficacy against Giardia lamblia (in words)” value in test [1] is “slightly less efficacious than the amidine counterpart of Example 5”. Regarding `COc1cc(C(=N)N)ccc1OCCCCCOc1ccc(C(=N)N)cc1OC` [Example 18], the IC50 in test [1] (setting [6]) worked out at 24 µM.

As to `N=C(N)c1ccc(OCCCOc2ccc(C(=N)N)cc2)cc1` [Example 3], in test [1] (setting [6]), the IC50 was found to be 12.3 µM.

As for `CCN(CC)CCCC(C)Nc1c2ccc(Cl)cc2nc2ccc(OC)cc12` (centres unmarked) [Quinacrine . HCl], the IC50 in test [2] is 1.09 µM; in test [3] it was 1.18 µM; in test [4], 4.02 µM; in test [1] (setting [10]) it was 1.41 µM; in test [5], 1.59 µM.

Values taken from patent US4963589A, “Methods for treating Giardia lamblia” (The University of North Carolina at Chapel Hill, priority 1988, dated 1990).
